Several values for one entry are separate records, joined by “and”; a condition that tells them apart may be missing. Equal entries are not always repeated.
Legend:
SW-620 [1] = assay: Inhibitory concentration against human colon cancer SW-620 cell line; format: functional, cell-based
HOP-62 = assay: Antiproliferative activity against human cancer HOP-62 cell line; format: functional, cell-based
SiHa = assay: Antiproliferative activity against human SIHA cell line; format: functional, cell-based
HCT-15 = assay: Antiproliferative activity against human colon cancer HCT-15 cell line; format: functional, cell-based
OVCAR-5 = assay: Antiproliferative activity against human cancer OVCAR-5 cell line; format: functional, cell-based
A549 = assay: Antiproliferative activity against human cancer A-549 cell line; format: functional, cell-based
PC-3 = assay: Antiproliferative activity against prostate cancer PC-3 cell line; format: functional, cell-based, Homo sapiens
HT-29 = assay: Antiproliferative activity against Colon cancer HT-29 cell line; format: functional, cell-based, Homo sapiens
DU-145 = assay: Antiproliferative activity against human cancer DU-145 cell line; format: functional, cell-based
SNB-78 = assay: Antiproliferative activity against human cancer SNB-78 cell line; format: functional, cell-based
HEp-2 = assay: Antiproliferative activity against human cancer Hep-2 cell line; format: functional, cell-based
SK-OV-3 = assay: Antiproliferative activity against human cancer SKOV-3 cell line; format: functional, cell-based
SW-620 [2] = assay: Antiproliferative activity against colon cancer SW-620 cell line; format: functional, cell-based; details: Homo sapiens

Structure (SMILES)	IC50 (SW-620 [1]; Homo sapiens, SW-620) [µM]	IC50 (HCT-15) [µM]	IC50 (OVCAR-5; Homo sapiens, OVCAR-5) [µM]	IC50 (A549; Homo sapiens, A549) [µM]	IC50 (PC-3; Homo sapiens, PC-3) [µM]	IC50 (HT-29; Homo sapiens, HT-29) [µM]	IC50 (DU-145; Homo sapiens, DU-145) [µM]	IC50 (HOP-62; Homo sapiens, HOP-62) [µM]	IC50 (SiHa; Homo sapiens, SiHa) [µM]	IC50 (SNB-78; Homo sapiens, SNB-78) [µM]	IC50 (HEp-2) [µM]	further results
COc1cc(C2=NNC(c3ccc4c(c3)OCO4)C2O)cc(OC)c1OC (stereo not drawn)	6.75	–	6.81	6.74	34.5	5.89	34.7	20.3	43	53.7	40	–
COc1cc(/C=C/C(=O)c2ccccc2)cc(OC)c1OC	8.45	15.8	–	8.96	–	12	–	16.6	20.8	–	11.9	IC50 (SK-OV-3): 56.5 µM
COc1cc(-c2cc(-c3ccc(Cl)cc3)[nH]n2)cc(OC)c1OC	4.96	6.45	8.61	15.8	–	8.09	–	12.3	–	14	–	–
COc1ccc(/C=C/C(=O)c2cc(OC)c(OC)c(OC)c2)cc1OC	5.8	7.95	8.3	6.9	7.85	6.64	9.21	8.12	9.35	22.8	6.15	IC50 (SK-OV-3): 6.09 µM
COc1ccc(-c2cc(-c3cc(OC)c(OC)c(OC)c3)nn2C(C)=O)cc1OC	16.1	16	16.7	10	–	10.4	–	22.1	54.8	–	–	–
COc1cc(C(=O)/C=C/c2ccc3c(c2)OCO3)cc(OC)c1OC	–	23.7	5.65	–	11.7	–	19.8	9.61	12.8	16.7	10.1	–
COc1ccc(-c2cc(-c3cc(OC)c(OC)c(OC)c3)[nH]n2)cc1OC	0.23	0.25	4.4	0.87	2.64	0.47	–	0.93	3.63	–	8.41	–
COc1cccc(C2NN=C(c3cc(OC)c(OC)c(OC)c3)C2O)c1 (stereo not drawn)	7.35	7.85	7.05	7.2	28	5.95	–	8.1	–	–	–	–
COc1cc(C(=O)/C=C/c2cc(OC)c(OC)c(OC)c2)ccc1OC(C)=O	–	7.75	–	15.6	–	10.5	–	9.2	33	–	6.95	IC50 (SK-OV-3): 8.35 µM
COc1cc(-c2cc(-c3cc(OC)c(OC)c(OC)c3)[nH]n2)cc(OC)c1OC	10	6.01	9.95	7.58	13.3	5.62	35.1	–	25	22	6.43	–
COc1cc(/C=C/C(=O)c2cc(OC)c(OC)c(OC)c2)cc(OC)c1OC	–	6.55	9.23	–	–	–	–	10	8.55	–	7.75	–
COc1cc(-c2cc(-c3ccc4c(c3)OCO4)[nH]n2)cc(OC)c1OC	9.25	15.6	33	8.85	9.55	6.01	8.56	13.5	10	74	34	–
COc1ccc(-c2cc(-c3cc(OC)c(OC)c(OC)c3)[nH]n2)cc1	5.15	–	9.54	–	15.8	–	24	–	15.9	–	–	IC50 (DU-145; du-145): 27 µM; IC50 (SW-620 [1]; sw-620): 3.41 µM; IC50 (SNB-78; snb-78): 21 µM and 50 µM; IC50 (HOP-62; hop-62): 4.81 µM and 0.65 µM; IC50 (SiHa; siha): 14.5 µM; IC50 (OVCAR-5; ovcar-5): 7.85 µM; IC50 (A549; a549): 4.35 µM and 1.01 µM; IC50 (PC-3; pc-3): 11.1 µM; IC50 (HT-29; ht-29): 2.95 µM and 0.62 µM

Second part, led by results:

IC50 (SW-620 [1]; Homo sapiens, SW-620) [µM]	IC50 (HCT-15) [µM]	IC50 (OVCAR-5; Homo sapiens, OVCAR-5) [µM]	IC50 (A549; Homo sapiens, A549) [µM]	IC50 (PC-3; Homo sapiens, PC-3) [µM]	IC50 (HT-29; Homo sapiens, HT-29) [µM]	IC50 (DU-145; Homo sapiens, DU-145) [µM]	Structure (SMILES)	IC50 (HOP-62; Homo sapiens, HOP-62) [µM]	IC50 (SiHa; Homo sapiens, SiHa) [µM]	IC50 (SNB-78; Homo sapiens, SNB-78) [µM]	IC50 (HEp-2) [µM]	further results
8.41	9.45	8.65	15.1	34.6	11.1	–	COc1cc(C2=NNC(c3ccc(Cl)cc3)C2O)cc(OC)c1OC (stereo not drawn)	20.4	56.4	–	–	–
5.9	0.48	6.45	3.8	8.93	4.75	3.87	COc1cc(-c2cc(-c3ccc(F)cc3)[nH]n2)cc(OC)c1OC	0.56	1.08	22.4	3.81	–
–	24	16.8	–	24.1	–	28.1	COc1cc(C(=O)/C=C/c2ccc(Cl)cc2)cc(OC)c1OC	26.9	40	25.4	12	–
2.67	0.96	13	1.07	15.2	0.96	–	COc1ccc(C2NN=C(c3cc(OC)c(OC)c(OC)c3)C2O)cc1 (stereo not drawn)	0.94	20.1	–	7.81	–
–	8.77	8.9	21.3	41.1	14.4	25.4	COc1cc(C(=O)/C=C/c2ccccc2)cc(OC)c1OC	20.5	36.5	22.8	7.55	IC50 (SK-OV-3): 21 µM; IC50 (SW-620 [2]): 16 µM
–	4.9	9	8.07	11.6	7.08	14.9	COc1cccc(C(=O)/C=C/c2cc(OC)c(OC)c(OC)c2)c1	10.1	10.9	10	13.7	–
8.63	12	8.76	10	–	8.43	–	COc1ccc(C2NN=C(c3cc(OC)c(OC)c(OC)c3)C2O)cc1OC (stereo not drawn)	10.7	–	–	–	–
–	7.75	–	19.2	–	20.2	–	COc1cc(C(=O)/C=C/c2cc(OC)c(OC)c(OC)c2)ccc1O	20.2	40.4	–	6.01	–
–	7.75	–	12	–	8.37	–	COc1cc(/C=C/C(=O)c2ccc(OC(C)=O)cc2)cc(OC)c1OC	56.1	13.3	–	13.1	–
13.6	8.35	20.6	15.6	108	7.41	94.1	COc1cc(C2=NNC(c3cc(OC)c(OC)c(OC)c3)C2O)cc(OC)c1OC (stereo not drawn)	20.4	83	–	–	–
–	8.9	–	–	18.1	15.6	48	COc1cc(-c2nn(C(C)=O)c(-c3ccc4c(c3)OCO4)c2OC(C)=O)cc(OC)c1OC	18.4	58.1	33	61.6	IC50 (SK-OV-3): 39.1 µM
5.85	8.45	7.15	5.72	–	6.01	–	COc1cc(C2=NNC(c3ccc(F)cc3)C2O)cc(OC)c1OC (stereo not drawn)	6.55	–	–	–	–
–	11.7	18.3	–	11.7	–	13.3	COc1cc(C(=O)/C=C/c2ccc(F)cc2)cc(OC)c1OC	24.7	7.92	13.8	10	–

Source: ChEMBL document CHEMBL1139638, “Synthesis and biological evaluation of chalcones and their derived pyrazoles as potential cytotoxic agents” (Bioorg Med Chem Lett, 2005)
